Measured values taken from publication PMC2191741 (The Journal of Experimental Medicine, 1994).
Values belong to the molecule of their own block, whether it stands above or below them.

Tests used:
[1] = test system: human polyclonal IgM RF binding to mAb II-481; conditions: text summary across the individual polyclonal IgM RFs tested
gE of HSV-1 = assay: ELISA of hybridoma supernatants with isolated gE and whole HSV-1; type: binding; conditions: hybridoma supernatant; isolated gE 5 ug/ml

- inhibition of RF binding to mAb II-481 by single inhibitor [1]: 62-90%
Molecule: SGVPDRF

- inhibition of RF binding to mAb II-481 by single inhibitor [1]: No inhibition
Molecule: CIKVAVS [reference compound]

- inhibition of RF binding to mAb II-481 by single inhibitor [1]: 80-100%
Molecule: HIWWNDN

- inhibition of RF binding to mAb II-481 by single inhibitor [1]: complete inhibition
B1: mAb II-481: IgG-2b mouse mAb directed at gE of HSV-1 (antibody, V domains shown)
VH: GILQPSQTLSLTCSFSGFSLTTYGIGVGWIRQPSGKGLEWLAHIWWNDNKFYNTVLKSRLTISRDTSNNQVFLRIASMDTADTATYYCARMRDGAWFAYWGQGTLVTVSA
VL: SLAVSAGEKVTMTCKSSQSVLYSSDHKNYLAWYQQKPGQSPKLLIYWASTRESGVPDRFTGSGSGTDFTLTINNVQTEDLAVYFCHQYLSSFTFGGGTKLEIQ
- reactivity with isolated gE and whole HSV-1 by ELISA (gE of HSV-1): strong anti-gE specificity
